Assay: gradient 5% acetonitrile 3 min, to 50% in 2 min, to 85% in 15 min, held 3 min, 100 µL/min
Conditions: column: Zorbax Extend-C18 2.1 x 50 mm; eluents: water / acetonitrile, 0.1% formic acid
How it was run: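 Over 3 months, pure standards in mixtures of ~100 molecules were run by HPLC coupled to a quadrupole time-of-flight mass spectrometer in positive and negative ionization mode. The column was a Zorbax Extend-C18 (2.1 × 50 mm, 1.8 μm) at 100 μL/min, eluted with water and acetonitrile each holding 0.1% formic acid, with 40 μL dead and 900 μL dwell volumes. Retention time was determined from adduct peaks chosen by software and checked manually.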

SMILES	RP-LC retention time [s]
CCC(=O)NCc1nc2c(n1C)CN(S(=O)(=O)c1ccc(F)c(F)c1)CC2	571
CC1(CNC(=O)NCCc2ccccc2)CCOCC1	696
CN1CC=C(c2noc(CCC(=O)N3CCC(c4ccccc4)C3)n2)CC1 (configuration not stated)	631
O=C(Cc1nnc(-c2ccsc2)o1)N1CCc2ccccc2C1	780
COCCn1cc(C(=O)Nc2ccc(Cl)cc2)c2nn(-c3ccccc3)c(=O)c-2c1	1050
Cc1cc2nc(NC3=NCN(CC4CCCO4)CN3)nc(C)c2cc1C (configuration not stated)	683
COc1ccc(NC(=O)N2CCN(c3cnn4c(C)nnc4c3)CC2)cc1OC	577
CCc1nncn1C1CCN(S(=O)(=O)c2cc(Cl)ccc2OC)CC1	709
O=C(NC1CCCC1)C1c2cccn2CC(=O)N1c1cccc(Cl)c1 (configuration not stated)	870
Cc1[nH]c2ccccc2c1C(=O)C(=O)NCCn1ccc2ccccc21	844
CCS(=O)(=O)N1CCOc2ccc(CCC(=O)NC3CC3)cc2C1	675
CC1=C(c2ccc(C)cc2)S(=O)(=O)N=C1N1CCCN(C(=O)c2ccc(C)cc2)CC1	885
CN(CCCNC(=O)C1CCCN(c2ncc(-c3cccc(F)c3)cn2)C1)c1ccccc1 (configuration not stated)	838
COCCc1noc(C2CN(C(=O)C3COc4ccccc4O3)C2)n1 (configuration not stated)	736
CC(=O)Nc1nsc(N2CCC(C(=O)NCc3cccs3)CC2)n1	610
COc1ccc(-c2nnc(Cc3nc(-c4cccnc4)no3)o2)cc1	755
COc1ccc2c(c1)C=C(C(=O)NC1CCCC1)C=CO2	918
CC(C)Cc1ccc(S(=O)(=O)N2CC(c3nc(-c4ccncc4)nn3C)C2)cc1	787
Cc1ccc(-c2noc(-c3ccc(=O)n(Cc4ccc(Cl)cc4)c3)n2)cc1	1230
CCCc1noc(-c2ccnc(-n3cnc(C(=O)N4CCOCC4)c3)c2)n1	747
Cn1cc(S(=O)(=O)N2CCCCC2)cc1C(=O)N1CCc2ccccc2C1	938
CN(C)c1ccc(-c2nc3ccc(Cl)cn3c2Nc2ccc3c(c2)OCO3)cc1	764
COC(=O)c1c(-c2ccc(OC)cc2)csc1N	822

SMILES	RP-LC retention time [s]
COC(=O)c1c(C)[nH]c(C(=O)N2CCC(CC(=O)NC3CCCCC3)CC2)c1C	730
O=C(NC1CCCCCCC1)C1CCN(C(=O)c2cccn2-c2cccnc2)CC1	797
COc1ccc(CNC(=O)N2CC(c3nc(C)no3)C3(CCOCC3)C2)cc1 (configuration not stated)	680
CN(C)c1cccc(C(=O)NC2CCN(c3cc(-c4cccs4)[nH]n3)C2)c1 (configuration not stated)	668
CCc1cccc(C)c1NC(=O)C1CCCN(S(=O)(=O)c2cc(-c3noc(C)n3)cs2)C1 (configuration not stated)	995
O=S(=O)(Cc1ccccc1F)N1CCC(c2noc(COCC3CC3)n2)CC1	962
Cc1ccc(-c2nc(-c3ccc4c(c3)oc(=O)n4C(C)C)no2)cc1	1280
CC(=O)N1CCc2cc(N3CC(C(=O)Nc4cc(Cl)ccc4F)CC3=O)ccc21 (configuration not stated)	768
COc1cc(C(=O)Nc2sc3c(c2C(N)=O)CCC(C)C3)cc(OC)c1OC (configuration not stated)	1010
COc1ccc(OC)c(-c2cn3ccn(-c4cccc(Cl)c4C)c(=O)c3n2)c1	924
COCCNC(=O)N1CCC(C(=O)NCC(F)(F)F)CC1	571
O=C(c1cc(=O)c2ccccc2o1)N1CCC(c2nnc(-c3ccc(F)cc3)o2)CC1	746
Cc1ccc(-c2cn3ccn(-c4ccc(C)c(C)c4)c(=O)c3n2)cc1	931
CCN1C(=O)C(C)(C(=O)Nc2cc(C)ccc2C)Oc2cccnc21 (configuration not stated)	744
Cc1cc(C)c(S(=O)(=O)N2CCC(c3noc(-c4ccccc4C)n3)CC2)c(C)c1	1430
COc1ccc(-c2ccc(N3CCN(c4ccccn4)CC3)nn2)cc1S(=O)(=O)N1CCOCC1	572
Cc1nn(-c2ccccc2)c(C)c1S(=O)(=O)N1CCC(C(=O)N2c3ccccc3CC2C)CC1 (configuration not stated)	1060
Cn1nc(N2CCC(NC(=O)c3ccc[nH]c3=O)C2)ccc1=O (configuration not stated)	575
CCCN(C)C(=O)CCC1CCN(c2cc(NCC)ncn2)CC1	571
O=C(NCCc1csc(-c2ccc(F)cc2)n1)Oc1ccccc1	944
COC(=O)c1cc(S(=O)(=O)N2CCCC2C(=O)NCc2ccccc2Cl)cn1C (configuration not stated)	845
Cc1ccc(N2CCC(NC(=O)Nc3ccccc3)C2=O)cc1C (configuration not stated)	870
Cc1ccc(CNC(=O)Cn2c(C(C)C)nc3c(c2=O)CN(Cc2ccccc2)CC3)cc1	694

SMILES	RP-LC retention time [s]
COc1ccccc1NC(=O)c1cccc(N2CCNC(c3ccccc3)C2)n1 (configuration not stated)	693
Cc1ccc2[nH]cc(CCNC(=O)CN3C(=O)CSc4cccn4-c4ccccc43)c2c1	954
Cc1cccc(Sc2nccnc2N2CCCC(C(=O)N3CCN(c4ccccn4)CC3)C2)c1 (configuration not stated)	761
CCC(C)NS(=O)(=O)c1cc(-c2nc(C)cs2)n(CC(=O)N2CCCCC2)c1 (configuration not stated)	920
CCc1ccc(-c2ccc(=O)n(Cc3nc(-c4cccs4)no3)n2)cc1	1060
Cc1nc(NC(=O)C2CC(=O)N(c3n[nH]c4cccc(F)c34)C2)sc1C (configuration not stated)	688
CCCCS(=O)(=O)c1cc2c(cc1NC(=O)c1ccccc1Br)n(C)c(=O)n2C	896
Cc1c(CCC(=O)NCc2cccnc2)c(=O)n2nc(-c3ccc(Cl)cc3)nc2n1C	632
O=C1N(c2cccc(F)c2)c2ncccc2S(=O)(=O)N1Cc1ccccc1F	1020
Nc1cc(C2CCN(C(=O)c3cncc(Br)c3)CC2)no1	620
COc1cccc(N2CCN(c3ccnc(SCC(=O)Nc4ccc(Cl)cc4F)n3)CC2)c1	941
CCOc1ccccc1NC(=O)Cn1c(-c2ccccc2)nc(CC)cc1=O	1320
COc1ccc(OC)c(NC(=O)COc2cc(C)nc(N3CCCC3)n2)c1	650
CCOC(=O)c1ccc(Nc2c(CC)c(C)nc3nc(-c4ccccc4)nn23)cc1	990
Cc1ccc(C)c(C(=O)Nc2cccn3c(C)nnc23)c1	695
O=S(=O)(NCCCN1CCOC(c2ccccc2)C1)c1ccccc1Cl (configuration not stated)	576
O=C(O)c1cccc(Nc2c(-c3ccc(N4CCOCC4)cc3)nc3cnccn23)c1	648
CN1CCN(CCc2ccc(Cl)c(Cl)c2)CC1	668
COc1ccc(-c2nc(N3CCCC(C)C3)c3ccccc3n2)cc1 (configuration not stated)	836
COc1cccc(C(=O)NCc2nn(C)c3ccccc23)c1	779
CCc1nn2c(CNC(=O)Cc3ccc(OC)cc3Cl)c(C)nc2s1	670

— the METLIN SMRT retention time set (Domingo-Almenara et al. 2019)
